Measurements reported in patent US20180177749A1, “USE OF CYP EXPRESSION TO DIRECT THERAPEUTIC INTERVENTION IN CANCER” (REGENTS OF THE UNIVERSITY OF MINNESOTA, priority 2016, published 2018).

Experiments:
T47D [1] = experiment: MTT cell proliferation assay, T47D; type: cell-based, human
Procedure: The human breast cancer cell lines MCF-7, T47D, and MDA-MB-231 described above were grown in Minimal Essential Medium (MCF-7), RPMI 1640 with insulin (0.2 U/mL) and 1 mM Na pyruvate (T47D) or DMEM containing 10% fetal bovine serum (FBS) (MDA-MB-231), which was defined as complete medium (CM). Cells were grown at 37° C. in a 5% CO2 incubator. […] MTT was then added (5 mg/ml), and after 2 h of incubation, the plates were centrifuged. The supernatant was removed; DMSO was added, and the absorbance was read at 540 nm with a BioTek 96-well plate reader.

MDA-MB-435/LCC6 = experiment: Measurement of OCR and ECAR, MDA-MB-435/LCC6; type: cell-based; settings: 20 and 40 μM
Procedure: (§1) Cells were maintained in growth medium consisting of 10% FBS at 37° C. with 5% CO2 and seeded at 100,000 cells per well in XF24-well cell culture microplates (Seahorse Bioscience, North Billirica, Mass.). Concentrated stocks of HBB were prepared in DMSO. HBB was diluted to 10× working concentration in XF assay medium (a non-buffered medium including 2 mM L-glutamine but no sodium bicarbonate (buffering agent), glucose, or sodium pyruvate). Assays were performed in the XF Extracellular Flux Analyzer (Seahorse Bioscience that measures uptake and excretion of metabolic end products in real time). Oxygen consumption rate (OCR) and extracellular acidification rate (ECAR) were measured using an XF Assay Kit. OCR is reported in pmoles/minute and ECAR in mpH/minute. Before analysis, the cells were switched from culture medium to XF assay medium. After baseline measurements, 75 μl of HBB prepared in assay medium was injected into each well to reach final working concentrations. After addition of HBB, OCR and ECAR were measured at 18-minute intervals. There were 5 replicates was performed for each data point for MCF-7, MDA-MB-231, T47D and MDA-MB-435 cell lines. There were 6 replicates for the studies of the 3-18 and 4-14 cell lines.

CYP4A11 = biological target: T1, CYP4A11 (Homo sapiens, UniProt Q02928); experiment: CYP4A11-mediated EET biosynthesis; type: biochemical; settings: 25 to 100 uM
T1 sequence (Q02928 5-519): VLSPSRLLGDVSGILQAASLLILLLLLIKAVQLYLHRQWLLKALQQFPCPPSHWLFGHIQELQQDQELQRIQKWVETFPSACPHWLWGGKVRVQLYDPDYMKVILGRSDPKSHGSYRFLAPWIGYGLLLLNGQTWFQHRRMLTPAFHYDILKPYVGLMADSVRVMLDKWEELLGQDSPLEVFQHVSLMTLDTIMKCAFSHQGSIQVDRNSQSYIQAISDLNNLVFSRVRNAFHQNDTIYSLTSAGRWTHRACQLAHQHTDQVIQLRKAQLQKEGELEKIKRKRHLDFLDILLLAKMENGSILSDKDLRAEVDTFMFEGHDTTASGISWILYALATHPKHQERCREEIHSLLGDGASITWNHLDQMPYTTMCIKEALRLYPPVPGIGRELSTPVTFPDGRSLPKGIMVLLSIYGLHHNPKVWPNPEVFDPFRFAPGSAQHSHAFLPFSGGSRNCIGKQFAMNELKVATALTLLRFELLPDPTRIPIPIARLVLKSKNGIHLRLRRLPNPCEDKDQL

CYP3A4 (Δ3-22) = CYP3A4 (Δ3-22) (Homo sapiens, UniProt P08684); experiment: Spectral binding to soluble truncated CYP3A4; settings: soluble truncated CYP3A4Δ3-22; read-out: spectral dissociation constant (Ks)
Sequence of CYP3A4 (Δ3-22) (P08684 with tags, fused parts or gaps): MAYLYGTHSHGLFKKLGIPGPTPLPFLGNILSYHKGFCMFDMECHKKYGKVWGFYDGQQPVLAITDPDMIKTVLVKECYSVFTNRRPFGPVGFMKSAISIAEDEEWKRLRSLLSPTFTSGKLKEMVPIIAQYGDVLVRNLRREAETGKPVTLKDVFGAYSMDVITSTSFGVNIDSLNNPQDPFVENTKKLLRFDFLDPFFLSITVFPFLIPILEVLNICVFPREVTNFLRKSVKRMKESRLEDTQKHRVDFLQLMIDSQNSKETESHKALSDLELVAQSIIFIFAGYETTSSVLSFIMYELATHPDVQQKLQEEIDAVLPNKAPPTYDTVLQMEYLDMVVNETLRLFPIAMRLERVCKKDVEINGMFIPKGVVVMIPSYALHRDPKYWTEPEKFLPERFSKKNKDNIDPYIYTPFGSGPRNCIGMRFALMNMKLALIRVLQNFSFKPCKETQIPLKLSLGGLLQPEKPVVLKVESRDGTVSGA

T47D [2] = experiment: Measurement of OCR and ECAR, T47D; type: cell-based, human; settings: 20 and 40 μM
Procedure: as §1

MCF-7 cells [3] = experiment: JC-1 mitochondrial membrane potential staining, MCF-7; type: cell-based, human; settings: HBB 20 μM 4 hours, (±)-14,15-EET 1 μM
Procedure: Cells were grown in chamber slides at 37° C. with 5% CO2 and treated with DMSO or HBB for 4 hours before JC-1 dye was added for the MCF-7 or MDA-MB-231 cell line. […] Images of red fluorescence (590 nm) and green fluorescence (530 nm) were acquired using an Olympus 1X70 microscope fitted with an Olympus DP70 digital camera (Olympus, Tokyo, Japan).

[4] = MTD for daily dosing by two-fold dose escalation in tumor-bearing mice; type: in vivo
MCF-7 cells [5] = experiment: Measurement of OCR and ECAR (extracellular flux), MCF-7; type: cell-based, human
Procedure: as §1, with “There were 5 replicates was performed for each data point for MCF-7, MDA-MB-231, T47D and MDA-MB-435 cell lines.” left out

[6] = t-AUCB 2.5, 5 μM, metformin 2.5, 5 mM, HBB 20, 40 μM, rotenone 1 μM

In the case of `CCCCCCNC(=N)NC(=N)NCc1ccccc1` [HBB, N1-hexyl-N5-benzyl-biguanide], the “growth inhibition abrogated by concurrent (±)-14,15-EET” value (T47D [1]; (±)-14,15-EET 1 μM, 24 hours) is reported as “abrogated most of the inhibition”, the IC50 (T47D [1]; Homo sapiens, ER+[PR+]) is reported as 25.1 µM and the “reduction of OCR and ECAR” value (MDA-MB-435/LCC6) is reported as “significant vs. vehicle”. For the same molecule, the “inhibition of EET production by CYP4A11” value (CYP4A11) was “only weakly”, the Kd (CYP3A4 (Δ3-22)) was 164 µM and the “reduction of OCR and ECAR” value (T47D [2]) was “significant vs. vehicle”. The “mitochondrial membrane potential (ΔΨm), JC-1” value (MCF-7 cells [3]) was “caused mitochondrial depolarization”, the lethality ([4]; 8 mg/kg/day ip, cohorts of 5 tumor-bearing mice) was “animal deaths within 3 days” and the MTD ([4]; athymic nude (Foxn1nu/Foxn1nu), mouse, in vivo, ip) was 4 mg/kg/day. For the same molecule, the “potency as inhibitor of OCR relative to metformin” value (MCF-7 cells [5]) was “more than 250 fold”, the “extracellular acidification rate (ECAR)” value (MCF-7 cells [5]; [6]) was “significant inhibition of ECAR without recovery” and the “oxygen consumption rate (OCR)” value (MCF-7 cells [5]; [6]) was “dose-dependent reduction of OCR”.
